In paper PMC5645531, “Probing the Single Key Amino Acid Responsible for the Novel Catalytic Function of ent-Kaurene Oxidase Supported by NADPH-Cytochrome P450 Reductases in Tripterygium wilfordii” (Frontiers in Plant Science, 2017):

Target: T1, TwKO (Tripterygium wilfordii, UniProt A0A2S0H3R9)
T1 construct: full-length ORF co-expressed from pESC-Leu with a TwCPR (all four tested, TwCPR3 best) in Saccharomyces cerevisiae BY-T20; with NADPH--cytochrome P450 reductase 3
Assay: GC-MS of methylated yeast culture extracts
Format: cell-based
Details: co-expressed TwCPR; substrate made in vivo by TwCPS3/TwKSL2:A608M; product ent-kaurenoic acid; 30 °C

T1 sequence (A0A2S0H3R9 1-509): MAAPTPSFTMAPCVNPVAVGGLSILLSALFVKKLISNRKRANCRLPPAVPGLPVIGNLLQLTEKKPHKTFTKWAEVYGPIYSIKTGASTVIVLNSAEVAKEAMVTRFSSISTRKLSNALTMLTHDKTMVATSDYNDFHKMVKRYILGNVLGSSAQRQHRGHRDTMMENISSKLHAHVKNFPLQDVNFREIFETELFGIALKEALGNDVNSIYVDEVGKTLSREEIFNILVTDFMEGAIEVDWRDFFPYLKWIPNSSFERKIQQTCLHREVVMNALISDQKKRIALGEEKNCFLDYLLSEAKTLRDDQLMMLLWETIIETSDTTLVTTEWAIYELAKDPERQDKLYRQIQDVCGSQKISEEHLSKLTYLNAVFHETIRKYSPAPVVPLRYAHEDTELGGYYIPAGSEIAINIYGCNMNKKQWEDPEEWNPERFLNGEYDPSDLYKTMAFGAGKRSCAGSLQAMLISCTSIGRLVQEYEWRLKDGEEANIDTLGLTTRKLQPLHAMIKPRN
T1 sequence (A0A808MGE5 1-690 partner): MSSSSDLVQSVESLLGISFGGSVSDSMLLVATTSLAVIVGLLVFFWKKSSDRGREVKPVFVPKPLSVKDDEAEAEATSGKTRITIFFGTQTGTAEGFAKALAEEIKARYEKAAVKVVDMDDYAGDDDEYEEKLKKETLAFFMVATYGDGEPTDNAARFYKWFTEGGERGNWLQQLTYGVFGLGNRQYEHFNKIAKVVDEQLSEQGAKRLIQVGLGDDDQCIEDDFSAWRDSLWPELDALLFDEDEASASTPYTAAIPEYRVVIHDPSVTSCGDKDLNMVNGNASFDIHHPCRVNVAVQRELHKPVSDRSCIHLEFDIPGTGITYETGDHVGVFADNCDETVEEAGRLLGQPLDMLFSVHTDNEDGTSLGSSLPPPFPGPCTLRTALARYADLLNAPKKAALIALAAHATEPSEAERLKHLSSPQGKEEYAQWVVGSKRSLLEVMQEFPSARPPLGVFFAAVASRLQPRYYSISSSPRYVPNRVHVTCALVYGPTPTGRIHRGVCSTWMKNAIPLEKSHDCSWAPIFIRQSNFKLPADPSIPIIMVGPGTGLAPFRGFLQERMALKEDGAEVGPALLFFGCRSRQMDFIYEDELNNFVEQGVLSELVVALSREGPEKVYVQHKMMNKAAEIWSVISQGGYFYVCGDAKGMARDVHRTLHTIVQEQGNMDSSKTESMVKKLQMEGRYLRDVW

C=C1C[C@@]23CC[C@@H]4C(C)(C)CCC[C@@]4(C)[C@@H]2CC[C@@H]1C3 [ent-kaurene]
GC-MS of methylated yeast culture extracts: three-stage oxidation of ent-kaurene to ent-kaurenoic acid
